In PubChem BioAssay AID330 (DTP/NCI, 2004):
Several values for one entry are separate records, joined by “and”; a condition that tells them apart may be missing. Identical values can stand only once. Toxic doses and inconclusive results are not listed. The calls were made as follows: active = survival T/C of 150% or more; inactive = T/C below 125% in these data.

Test system: P388 leukemia ip, CD2F1 mice, survival T/C
Assay: NCI In Vivo Anticancer Drug Screen. Data for tumor model P388 Leukemia (intraperitoneal) in CD2F1 (CDF1) mice
Conditions: endpoint: median survival time, higher = longer survival
How it was run: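 Mice carrying the transplanted tumor received test compound or vehicle. Survival was recorded in each group, and the value is the treated-group measurement divided by that of the vehicle-treated control group.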

[1] = dose: 50.0 mg/kg/injection, schedule: Q01DX005 (ip), vehicle: saline with Tween-80
[2] = dose: 100.0 mg/kg/injection, schedule: Q01DX005 (ip), vehicle: saline with Tween-80
[3] = dose: 200.0 mg/kg/injection, schedule: Q01DX005 (ip), vehicle: saline with Tween-80
[4] = dose: 50.0 mg/kg/injection, schedule: Q01DX009 (ip), vehicle: Klucel (hydroxypropylcellulose) (HPC)
[5] = dose: 100.0 mg/kg/injection, schedule: Q01DX009 (ip), vehicle: Klucel (hydroxypropylcellulose) (HPC)
[6] = dose: 12.5 mg/kg/injection, schedule: Q01DX005 (ip), vehicle: Klucel (hydroxypropylcellulose) (HPC)
[7] = dose: 50.0 mg/kg/injection, schedule: Q01DX009 (ip), vehicle: saline
[8] = dose: 100.0 mg/kg/injection, schedule: Q01DX009 (ip), vehicle: saline
[9] = dose: 200.0 mg/kg/injection, schedule: Q01DX009 (ip), vehicle: saline
[10] = dose: 100.0 mg/kg/injection, schedule: Q01DX009 (ip), vehicle: saline with Tween-80
[11] = dose: 200.0 mg/kg/injection, schedule: Q01DX009 (ip), vehicle: saline with Tween-80

Measured: T/C

O=C(NN(CCN(NC(=O)c1ccccc1)C(=O)c1ccccc1)C(=O)c1ccccc1)c1ccccc1
inactive: [1] 99 % of control | [2] 92 % of control | [3] 96 % of control

O=C(O)CCCCCCCCCCNC(=O)CCl
inactive: [4] 88 % of control | [5] 91 % of control

O=[n+]1c2c(n([O-])c3ccccc31)-c1cccc3cccc-2c13
inactive: dose: 12.5 mg/kg/injection, schedule: Q01DX010 (ip), vehicle: saline 100 % of control | dose: 25.0 mg/kg/injection, schedule: Q01DX010 (ip), vehicle: saline 100 % of control | dose: 50.0 mg/kg/injection, schedule: Q01DX010 (ip), vehicle: saline 100 % of control | dose: 100.0 mg/kg/injection, schedule: Q01DX010 (ip), vehicle: saline 100 % of control

Cc1nc2ccccc2c(=O)n1/N=C1/C(=O)Nc2ccc(Br)cc21
inactive: [6] 96 % of control | dose: 25.0 mg/kg/injection, schedule: Q01DX005 (ip), vehicle: Klucel (hydroxypropylcellulose) (HPC) 96 % of control | dose: 50.0 mg/kg/injection, schedule: Q01DX005 (ip), vehicle: Klucel (hydroxypropylcellulose) (HPC) 88 % of control and 90 % of control | dose: 100.0 mg/kg/injection, schedule: Q01DX005 (ip), vehicle: Klucel (hydroxypropylcellulose) (HPC) 91 % of control | dose: 200.0 mg/kg/injection, schedule: Q01DX005 (ip), vehicle: Klucel (hydroxypropylcellulose) (HPC) 104 % of control

CC1(C)CC(=NNC(N)=S)CC(C)(C)N1
inactive: [7] 94 % of control | [8] 97 % of control | [9] 99 % of control

Cn1nnnc1NNc1nnnn1C
inactive: [1] 99 % of control | [2] 99 % of control | [3] 99 % of control

COc1cccc(C)c1C(O)CC1CCCN1 (centres undefined)
inactive: [4] 106 % of control | [5] 102 % of control

Cc1ccccc1N=Cc1ccc(N(C)C)cc1
inactive: [10] 91 % of control | [11] 87 % of control

CC(C)=NNC(N)=S
inactive: dose: 12.5 mg/kg/injection, schedule: Q04DX003 (ip), vehicle: Klucel (hydroxypropylcellulose) (HPC) 93 % of control | dose: 25.0 mg/kg/injection, schedule: Q04DX003 (ip), vehicle: Klucel (hydroxypropylcellulose) (HPC) 100 % of control

CC(=O)c1cc(CN(C)C)c(O)c(CN(C)C)c1
inactive: dose: 50.0 mg/kg/injection, schedule: Q01DX005 (ip), vehicle: saline 101 % of control | dose: 100.0 mg/kg/injection, schedule: Q01DX005 (ip), vehicle: saline 99 % of control | dose: 200.0 mg/kg/injection, schedule: Q01DX005 (ip), vehicle: saline 99 % of control

O=P(CCCCBr)(NCc1ccccc1)c1ccccc1 (centres undefined)
inactive: dose: 100.0 mg/kg/injection, schedule: Q04DX003 (ip), vehicle: Klucel (hydroxypropylcellulose) (HPC) 105 % of control | dose: 200.0 mg/kg/injection, schedule: Q04DX003 (ip), vehicle: Klucel (hydroxypropylcellulose) (HPC) 117 % of control

COC1=C(N)C(=O)c2nc(-c3nc(C=O)c(C)c(-c4ccc(OC)c(OC)c4O)c3N)ccc2C1=O
inactive: dose: 0.18 mg/kg/injection, schedule: Q01DX009 (ip), vehicle: DMSO 116 % of control | dose: 0.3 mg/kg/injection, schedule: Q01DX009 (ip), vehicle: DMSO 115 % of control | dose: 0.3 mg/kg/injection, schedule: Q01DX009 (ip), vehicle: other 115 % of control | dose: 0.33 mg/kg/injection, schedule: Q01DX009 (ip), vehicle: DMSO 104 % of control | dose: 0.55 mg/kg/injection, schedule: Q01DX009 (ip), vehicle: DMSO 124 % of control | dose: 0.55 mg/kg/injection, schedule: Q01DX009 (ip), vehicle: other 124 % of control | dose: 0.62 mg/kg/injection, schedule: Q01DX009 (ip), vehicle: other 120 % of control | dose: 0.63 mg/kg/injection, schedule: Q01DX009 (ip), vehicle: DMSO 110 % of control | dose: 0.93 mg/kg/injection, schedule: Q01DX009 (ip), vehicle: DMSO 121 % of control | dose: 1.05 mg/kg/injection, schedule: Q01DX009 (ip), vehicle: DMSO 124 % of control | dose: 1.05 mg/kg/injection, schedule: Q01DX009 (ip), vehicle: other 124 % of control | dose: 1.24 mg/kg/injection, schedule: Q01DX009 (ip), vehicle: other 110 % of control | dose: 1.53 mg/kg/injection, schedule: Q01DX009 (ip), vehicle: DMSO 118 % of control | dose: 1.55 mg/kg/injection, schedule: Q01DX009 (ip), vehicle: DMSO 124 % of control | dose: 1.55 mg/kg/injection, schedule: Q01DX009 (ip), vehicle: other 99 % of control and 100 % of control and 124 % of control | dose: 2.05 mg/kg/injection, schedule: Q01DX009 (ip), vehicle: DMSO 110 % of control | dose: 2.05 mg/kg/injection, schedule: Q01DX009 (ip), vehicle: other 110 % of control | dose: 3.03 mg/kg/injection, schedule: Q01DX009 (ip), vehicle: DMSO 84 % of control | dose: 3.1 mg/kg/injection, schedule: Q01DX009 (ip), vehicle: other 121 % of control | dose: 4.96 mg/kg/injection, schedule: Q01DX009 (ip), vehicle: other 92 % of control and 93 % of control | dose: 6.03 mg/kg/injection, schedule: Q01DX009 (ip), vehicle: DMSO 94 % of control | dose: 6.05 mg/kg/injection, schedule: Q01DX009 (ip), vehicle: DMSO 124 % of control | dose: 6.05 mg/kg/injection, schedule: Q01DX009 (ip), vehicle: other 124 % of control | dose: 6.2 mg/kg/injection, schedule: Q01DX009 (ip), vehicle: other 110 % of control | dose: 12.4 mg/kg/injection, schedule: Q01DX009 (ip), vehicle: other 56 % of control

C=[CH][Sn](=[O])[CH]=C
inactive: [7] 104 % of control | [8] 105 % of control and 89 % of control | [9] 104 % of control and 88 % of control

C/C=C/C(=O)OCC1CCN(C)C1 (centres undefined)
inactive: dose: 12.5 mg/kg/injection, schedule: Q01DX009 (ip), vehicle: Klucel (hydroxypropylcellulose) (HPC) 95 % of control | dose: 25.0 mg/kg/injection, schedule: Q01DX009 (ip), vehicle: Klucel (hydroxypropylcellulose) (HPC) 94 % of control | [4] 96 % of control | [5] 94 % of control | dose: 200.0 mg/kg/injection, schedule: Q01DX009 (ip), vehicle: Klucel (hydroxypropylcellulose) (HPC) 89 % of control

NC(=O)/C=C/C(N)=O
inactive: dose: 12.5 mg/kg/injection, schedule: Q01DX009 (ip), vehicle: saline with Tween-80 104 % of control | dose: 25.0 mg/kg/injection, schedule: Q01DX009 (ip), vehicle: saline with Tween-80 98 % of control | dose: 50.0 mg/kg/injection, schedule: Q01DX009 (ip), vehicle: saline with Tween-80 102 % of control | [10] 107 % of control | dose: 100.0 mg/kg/injection, schedule: Q04DX003 (ip), vehicle: saline with Tween-80 90 % of control | [11] 101 % of control | dose: 200.0 mg/kg/injection, schedule: Q04DX003 (ip), vehicle: saline with Tween-80 90 % of control

FC(F)(F)C1(C(F)(F)F)OI2(Br)(OC(C(F)(F)F)(C(F)(F)F)c3ccccc32)c2ccccc21
inactive: dose: 6.25 mg/kg/injection, schedule: Q01DX005 (ip), vehicle: Klucel (hydroxypropylcellulose) (HPC) 99 % of control | [6] 97 % of control

CSC(=C[N+](=O)[O-])SC
inactive: dose: 3.13 mg/kg/injection, schedule: Q01DX009 (ip), vehicle: water 100 % of control | dose: 6.25 mg/kg/injection, schedule: Q01DX009 (ip), vehicle: water 105 % of control | dose: 12.5 mg/kg/injection, schedule: Q01DX009 (ip), vehicle: water 96 % of control | dose: 25.0 mg/kg/injection, schedule: Q01DX009 (ip), vehicle: water 104 % of control

Clc1ccc(-c2cc3cc4c(cc3[nH]2)Oc2ccccc2O4)cc1
inactive: dose: 17.5 mg/kg/injection, schedule: Q01DX009 (ip), vehicle: Klucel (hydroxypropylcellulose) (HPC) 107 % of control | dose: 35.0 mg/kg/injection, schedule: Q01DX009 (ip), vehicle: Klucel (hydroxypropylcellulose) (HPC) 103 % of control | dose: 70.0 mg/kg/injection, schedule: Q01DX009 (ip), vehicle: Klucel (hydroxypropylcellulose) (HPC) 103 % of control

CCCOc1cc2c(cc1C(C)c1ccc(OCC)c(C)c1)OCO2 (centres undefined)
inactive: dose: 30.0 mg/kg/injection, schedule: Q01DX005 (ip), vehicle: saline with Tween-80 100 % of control | dose: 60.0 mg/kg/injection, schedule: Q01DX005 (ip), vehicle: saline with Tween-80 103 % of control | dose: 120.0 mg/kg/injection, schedule: Q01DX005 (ip), vehicle: saline with Tween-80 106 % of control | dose: 240.0 mg/kg/injection, schedule: Q01DX005 (ip), vehicle: saline with Tween-80 116 % of control
